# Reference: patent publication US20040162286A1, “Substituted 6-(2-tolyl)-triazolopyrimidines as fungicides” (priority 2001, published 2004)
# System: Blumeria graminis f. sp. tritici
# Assay: Fungicidal control of powdery mildew on wheat, protective spray
# Format: in vivo
# Settings: 63 ppm active ingredient, assessed after 7 days, untreated plants infected to 85%
# Source text: The active compounds, separately or together, were formulated as a 10% emulsion in a mixture of 70% by weight of cyclohexanone, 20% by weight of Nekanil® LN (Lutensol® AP6, wetting agent having emulsifying and dispersant action based on ethoxylated alkylphenols) and 10% by weight of Wettol® EM (nonionic emulsifier based on ethoxylated castor oil) and diluted with water to the desired concentration. The first fully developed leaves of pot grown wheat of the variety “Kanzler” were sprayed to run-off with an aqueous suspension, containing the concentration of active ingredient or their mixture mentioned in the table below, prepared from a stock solution containing 10% of the active ingredient, 85% cyclohexanone and 5% emulsifier. The next day the treated plants were inoculated with spores of Blumeria graminis f. sp. tritici by shaking heavily infestated stock plants over the treated pots. After cultivation in the greenhouse for 7 days at 22-26° C. and a relative humidity between 60 to 90% the extent of fungal attack on the leaves was visually assessed as % diseased leaf area. The test was conducted as described in Comparison trial 2.
row,SMILES,infection (% diseased leaf area)
1,Cc1ccccc1-c1c(Cl)nc2ncnn2c1NC(C)C(F)(F)F (centres unmarked) [Compound A],30%

# System: Alternaria solani
# Assay: Fungicidal control of early blight on tomatoes, protective spray
# Format: in vivo
# Settings: 63 ppm active ingredient; tomato plants; assessed after 6 days; untreated plants infected to 90%
# Method: The active compounds, separately or together, were formulated as a 10% emulsion in a mixture of 70% by weight of cyclohexanone, 20% by weight of Nekanil® LN (Lutensol® AP6, wetting agent having emulsifying and dispersant action based on ethoxylated alkylphenols) and 10% by weight of Wettol® EM (nonionic emulsifier based on ethoxylated castor oil) and diluted with water to the desired concentration. Young seedlings of tomato plants of the variety “Groβe Fleischtomate St. Pierre” were grown in pots to the 2 to 4 leaf stage. These plants were sprayed to run-off with an aqueous suspension, containing the concentration of active ingredient mentioned in the table below, prepared from a stock solution containing 10% of the active ingredient, 85% cyclohexanone and 5% emulsifier. The next day, the treated plants were inoculated with an aqueous suspension of Alternaria solani containing 0.2×10^6 spores per ml. Then the trial plants were immediately transferred to a humid chamber. After 6 days at 20 to 23° C. and a relative humidity close to 100%, the extent of fungal attack on the leaves was visually assessed as % diseased leaf area. The test was conducted as described in Comparison trial 1.
row,SMILES,infection (% diseased leaf area)
1,Cc1ccccc1-c1c(Cl)nc2ncnn2c1NC(C)C(F)(F)F (centres unmarked) [Compound A],15%

# Same assay, conditions: 250 ppm active ingredient; tomato plants; untreated plants infected to 90%
row,SMILES,infection (% diseased leaf area)
1,CCC(C)Nc1c(-c2ccc(F)cc2C)c(Cl)nc2ncnn12 (racemic) [I-35],no infection
2,Cc1cc(F)ccc1-c1c(Cl)nc2ncnn2c1NC(C)C(C)C (racemic) [I-38],no infection
3,Cc1cc(F)ccc1-c1c(Cl)nc2ncnn2c1NC(C)C(C)(C)C (racemic) [I-41],no infection
4,Cc1cc(F)ccc1-c1c(Cl)nc2ncnn2c1NC(C)C(F)(F)F (racemic) [I-44],no infection
5,C=C(C)CN(CC)c1c(-c2c(C)cccc2F)c(Cl)nc2ncnn12 [I-7],no infection
6,Cc1cccc(F)c1-c1c(Cl)nc2ncnn2c1N1CCC(C)CC1 [I-9],no infection
7,Cc1cccc(F)c1-c1c(Cl)nc2ncnn2c1NC1CCCC1 [I-10],no infection
8,C=C(C)CN(CC)c1c(-c2ccc(F)cc2C)c(Cl)nc2ncnn12 [I-28],no infection
9,Cc1cc(F)ccc1-c1c(Cl)nc2ncnn2c1N1CCC(C)CC1 [I-30],no infection
10,Cc1cc(Cl)ccc1-c1c(Cl)nc2ncnn2c1N1CCC(C)CC1 [I-66],no infection
11,Cc1cc(Cl)ccc1-c1c(Cl)nc2ncnn2c1NCC(F)(F)F [I-83],no infection

# System: Plasmopara viticola
# Assay: Fungicidal control of grape downy mildew (Comparison Trial 3, inoculation the next day)
# Format: in vivo
# Settings: 250 ppm active ingredient; grape cuttings; inoculated next day; untreated plants infected to 80%
# Method: The active compounds, separately or together, were formulated as a 10% emulsion in a mixture of 70% by weight of cyclohexanone, 20% by weight of Nekanil® LN (Lutensol® AP6, wetting agent having emulsifying and dispersant action based on ethoxylated alkylphenols) and 10% by weight of Wettol® EM (nonionic emulsifier based on ethoxylated castor oil) and diluted with water to the desired concentration. Grape cuttings of the cultivar “Müller-Thurgau” were grown in pots to the 4 to 5 leaf stage. These plants were sprayed to run-off with an aqueous suspension, containing the concentration of active ingredient or their mixture mentioned in the table below, prepared from a stock solution containing 10% of the active ingredient, 85% cyclohexanone and 5% emulsifier. The plants were allowed to air-dry. The next day they were inoculated with an aqueous spore suspension of Plasmopara viticola by spraying it at the lower leaf-side. Then the trial plants were immediately transferred for 24 h to a humid chamber with 22-24° C. and a relative humidity close to 100%. For a period of 5 days, cultivation followed in a greenhouse at 20-25° C. and a relative humidity about 50-80%. To stimulate the outbreak of the disease symptoms, the plants were transferred to a humid chamber again for 24 hours. Then the extent of fungal attack on the lower leaf surface was visually assessed as % diseased leaf area.
row,SMILES,"infection (% diseased leaf area, lower leaf surface)"
1,Cc1ccccc1-c1c(Cl)nc2ncnn2c1NC(C)C(F)(F)F (centres unmarked) [Compound A],80%
